pIC50: −log10 of the molar value. Structures can show the parent of a compound that is named as a salt.
The compounds below were run against T1, human MRGPRX2 (Homo sapiens, UniProt Q96LB1) (assay: Ca2+ mobilization assay (FLIPR TETRA): inhibition of Cortistatin-14 mediated MRGPRX2 activation).
T1 sequence (Q96LB1 1-330): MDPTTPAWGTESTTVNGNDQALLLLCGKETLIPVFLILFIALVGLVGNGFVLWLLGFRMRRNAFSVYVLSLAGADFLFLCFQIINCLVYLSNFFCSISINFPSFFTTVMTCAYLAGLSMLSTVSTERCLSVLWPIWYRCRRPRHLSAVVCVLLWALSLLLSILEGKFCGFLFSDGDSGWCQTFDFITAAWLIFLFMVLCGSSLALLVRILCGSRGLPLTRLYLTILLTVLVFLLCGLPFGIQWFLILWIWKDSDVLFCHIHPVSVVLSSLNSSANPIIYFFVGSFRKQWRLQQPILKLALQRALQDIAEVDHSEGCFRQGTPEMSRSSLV

SMILES	pIC50
C[C@@H](C(=O)Nc1ccc(OCC2CC2)cn1)N1CCC(F)(F)[C@@H](c2cc[n+]([O-])cc2)C1 [Example 111, 4-((S)-1-((S)-1-((5-(cyclopropylmethoxy)pyridin-2-yl)amino)-1-oxopropan-2-yl)-4,4-difluoropiperidin-3-yl)pyridine 1-oxide]	7.00 to 8.00
Cc1cc([C@@H]2CCCN([C@@H](C)C(=O)Nc3ccc(Cl)cn3)C2)c[nH]c1=O (single isomer, unassigned) [Example 184]	4.50 to 5.50
C[C@@H](C(=O)Nc1ccc(OCC2CC2)cn1)N1CCC[C@@H](c2c[nH]c(=O)cc2C(F)(F)F)C1 (single isomer, unassigned) [Example 169]	5.50 to 7.00
C[C@@H](C(=O)Nc1ccc2oc(C3CC3)nc2n1)N1CCC(F)(F)[C@@H](c2ccc(=O)[nH]c2)C1 [Example 17, (S)-N-(2-cyclopropyl-oxazolo[4,5-b]pyridin-5-yl)-2-((S)-4,4-difluoro-3-(6-oxo-1,6-dihydropyridin-3-yl)piperidin-1-yl)propanamide]	5.50 to 7.00
CNCc1cc([C@H]2CN([C@@H](C)C(=O)Nc3ccc(Oc4ccc(F)cc4F)cn3)CCC2(F)F)c[nH]c1=O [Example 243, (S)-2-((S)-4,4-difluoro-3-(5-((methylamino)methyl)-6-oxo-1,6-dihydropyridin-3-yl)piperidin-1-yl)-N-(5-(2,4-difluorophenoxy)pyridin-2-yl)propanamide]	≥ 8.00
C[C@@H](C(=O)Nc1ccc(Oc2ccc(F)cc2CN(C)C)cn1)N1CCC(F)(F)[C@@H](c2ccc(=O)[nH]c2)C1 [Example 98, (S)-2-((S)-4,4-difluoro-3-(6-oxo-1,6-dihydropyridin-3-yl)piperidin-1-yl)-N-(5-(2-((dimethylamino)methyl)-4-fluorophenoxy)pyridin-2-yl)propanamide]	5.50 to 7.00
C[C@@H](C(=O)Nc1ccc(Oc2ccc(F)cn2)cn1)N1CCC(F)(F)[C@@H](c2cc[n+]([O-])cc2)C1 [Example 115]	7.00 to 8.00
C[C@@H](C(=O)Nc1ccc(OCC2CC2)nn1)N1CCC(F)(F)[C@@H](c2c[nH]c(=O)c(N)c2)C1 [Example 140, (S)-2-((S)-3-(5-amino-6-oxo-1,6-dihydropyridin-3-yl)-4,4-difluoropiperidin-1-yl)-N-(6-(cyclopropylmethoxy)pyridazin-3-yl)propanamide]	7.00 to 8.00
CC(C(=O)Nc1ccc(OC2CC3(CCC3)C2)nn1)N1CCC(F)(F)[C@@H](c2ccc(=O)[nH]c2)C1 (stereo partly drawn) [Example 93, 2-((S)-4,4-difluoro-3-(6-oxo-1,6-dihydropyridin-3-yl)piperidin-1-yl)-N-(6-(spiro[3.3]heptan-2-yloxy)pyridazin-3-yl)propanamide]	5.50 to 7.00
C[C@@H](C(=O)Nc1cnc(Oc2ccccc2)cn1)N1CCC(F)(F)[C@@H](c2ccc(=O)[nH]c2)C1 [Example 60, (S)-2-((S)-4,4-difluoro-3-(6-oxo-1,6-dihydropyridin-3-yl)piperidin-1-yl)-N-(5-phenoxypyrazin-2-yl)propanamide]	7.00 to 8.00
C[C@@H](C(=O)Nc1ccc(Oc2ccc(F)cc2F)cn1)N1CCC(F)(F)[C@@H](c2c[nH]c(=O)c(CS(C)(=O)=O)c2)C1 [Example 216, (S)-2-((S)-4,4-difluoro-3-(5-((methylsulfonyl)methyl)-6-oxo-1,6-dihydropyridin-3-yl)piperidin-1-yl)-N-(5-(2,4-difluorophenoxy)pyridin-2-yl)propanamide]	≥ 8.00
CC(C(=O)Nc1ccc(OCC2CC2(F)F)cn1)N1CCC(F)(F)[C@@H](c2ccc(=O)[nH]c2)C1 (stereo partly drawn) [Example 36, 2-((S)-4,4-difluoro-3-(6-oxo-1,6-dihydropyridin-3-yl)piperidin-1-yl)-N-(5-((2,2-difluorocyclo-propyl)methoxy)pyridin-2-yl)propanamide]	5.50 to 7.00
C[C@@H](C(=O)Nc1ccc(F)cn1)N1CCC(F)(F)[C@@H](c2ccc(=O)n(CC(F)F)c2)C1 [Example 193]	≥ 8.00
C[C@@H](C(=O)Nc1ccc(-c2ccccc2)cn1)N1CCC(F)(F)[C@@H](c2ccc(=O)[nH]c2)C1 [Example 23, (S)-2-((S)-4,4-difluoro-3-(6-oxo-1,6-dihydropyridin-3-yl)piperidin-1-yl)-N-(5-phenylpyridin-2-yl)propanamide]	5.50 to 7.00
C[C@@H](C(=O)Nc1cnc(Oc2ccc(F)cc2F)cn1)N1CCC[C@@H](c2cc[n+]([O-])cc2)C1 [Example 181, 4-((S)-1-((S)-1-((5-(2,4-difluorophenoxy)pyrazin-2-yl)amino)-1-oxopropan-2-yl)piperidin-3-yl)pyridine 1-oxide]	7.00 to 8.00
C[C@@H](C(=O)Nc1ccc2cc(C3CC3)ccc2n1)N1CCC(F)(F)[C@@H](c2ccc(=O)[nH]c2)C1 [Example 25, (S)-N-(6-cyclopropylquino-lin-2-yl)-2-((S)-4,4-difluoro-3-(6-oxo-1,6-dihydropyridin-3-yl)piperidin-1-yl)propanamide]	5.50 to 7.00
C[C@@H](C(=O)Nc1ccc(Cl)cn1)N1CCC[C@@H](c2ccc(=O)[nH]c2)C1 [Example 158, (S)—N-(5-chloropyridin-2-yl)-2-((S)-3-(6-oxo-1,6-dihydropyridin-3-yl)piperidin-1-yl)propanamide]	5.50 to 7.00
C[C@@H](C(=O)Nc1ccc(F)cn1)N1CCC(F)(F)[C@@H](c2c[nH]c(=O)c(CO)c2)C1 [Example 153, (S)-2-((S)-4,4-difluoro-3-(5-(hydroxymethyl)-6-oxo-1,6-dihydropyridin-3-yl)piperidin-1-yl)-N-(5-fluoropyridin-2-yl)propanamide]	5.50 to 7.00
C[C@@H](C(=O)Nc1ccc(OCC2CC2)cn1)N1CCC(F)(F)[C@@H](c2ccc(=O)[nH]n2)C1 [Example 145, (S)—N-(5-(cyclopropylmethoxy)pyridin-2-yl)-2-((R)-4,4-difluoro-3-(6-oxo-1,6-dihydropyridazin-3-yl)piperidin-1-yl)propanamide]	7.00 to 8.00
CC(C(=O)Nc1ccc(-c2ccon2)cn1)N1CCC(F)(F)[C@@H](c2ccc(=O)[nH]c2)C1 (stereo partly drawn) [Example 56, 2-((S)-4,4-difluoro-3-(6-oxo-1,6-dihydropyridin-3-yl)piperidin-1-yl)-N-(5-(isoxazol-3-yl)pyridin-2-yl)propanamide]	4.50 to 5.50
C[C@@H](C(=O)Nc1ccc(Oc2ccc(F)c(F)c2)cn1)N1CCC(F)(F)[C@@H](c2ccc(=O)[nH]c2)C1 [Example 268, (S)-2-((S)-4,4-difluoro-3-(6-oxo-1,6-dihydropyridin-3-yl)piperidin-1-yl)-N-(5-(3,4-difluorophenoxy)pyridin-2-yl)propanamide]	≥ 8.00
C[C@@H](C(=O)Nc1ccc(OC2CCCC2)cn1)N1CCC(F)(F)[C@@H](c2ccc(=O)[nH]c2)C1 [Example 9, (S)-N-(5-(cyclopentyloxy)pyridin-2-yl)-2-((S)-4,4-difluoro-3-(6-oxo-1,6-dihydropyridin-3-yl)piperidin-1-yl)propanamide]	7.00 to 8.00
CC(C(=O)Nc1ccc(Oc2ncc(F)cc2Cl)cn1)N1CCC(F)(F)[C@@H](c2ccc(=O)[nH]c2)C1 (stereo partly drawn) [Example 90, N-(5-((3-chloro-5-fluoropyridin-2-yl)oxy)pyridin-2-yl)-2-((S)-4,4-difluoro-3-(6-oxo-1,6-dihydropyridin-3-yl)piperidin-1-yl)propanamide]	≥ 8.00
CC(C(=O)Nc1ccc(-c2cccs2)cn1)N1CCC(F)(F)[C@@H](c2ccc(=O)[nH]c2)C1 (stereo partly drawn) [Example 50, 2-((S)-4,4-difluoro-3-(6-oxo-1,6-dihydropyridin-3-yl)piperidin-1-yl)-N-(5-(thiophen-2-yl)pyridin-2-yl)propanamide]	5.50 to 7.00
C[C@@H](C(=O)Nc1ccc(F)cn1)[C@H]1CCC(F)(F)[C@@H](c2ccc(=O)[nH]c2)C1 [Example 277, (R)-2-((1S,3R)-4,4-difluoro-3-(6-oxo-1,6-dihydropyridin-3-yl)cyclohexyl)-N-(5-fluoropyridin-2-yl)propanamide]	7.00 to 8.00
CC(C(=O)Nc1ccc(Cc2ccccn2)cn1)N1CCC(F)(F)[C@@H](c2ccc(=O)[nH]c2)C1 (stereo partly drawn) [Example 57, 2-((S)-4,4-difluoro-3-(6-oxo-1,6-dihydropyridin-3-yl)piperidin-1-yl)-N-(5-(pyridin-2-ylmethyl)pyridin-2-yl)propanamide hydrochloride]	5.50 to 7.00
C[C@@H](C(=O)Nc1ccc(Cl)cn1)N1CCC[C@@H](c2cc[n+]([O-])cc2)C1 (single isomer, unassigned) [Example 180]	4.50 to 5.50
CC(C(=O)Nc1ccc(Oc2ccc(F)cc2)cn1)N1CCC(F)(F)C(c2ccc(=O)n(CCS(C)(=O)=O)c2)C1 (stereo not drawn) [Example 192, 2-(4,4-difluoro-3-(1-(2-(methylsulfonyl)ethyl)-6-oxo-1,6-dihydropyridin-3-yl)piperidin-1-yl)-N-(5-(4-fluorophenoxy)pyridin-2-yl)propanamide]	7.00 to 8.00
C[C@@H](C(=O)Nc1ccc(Oc2ccc(F)cc2)cn1)N1CCC(F)(F)[C@@H](c2c[nH]c(=O)c(CS(C)(=O)=O)c2)C1 [Example 214, (S)-2-((S)-4,4-difluoro-3-(5-((methylsulfonyl)methyl)-6-oxo-1,6-dihydropyridin-3-yl)piperidin-1-yl)-N-(5-(4-fluorophenoxy)pyridin-2-yl)propanamide]	≥ 8.00
C[C@@H](C(=O)Nc1ccc(Oc2ccc(F)cc2)cn1)N1CCC(F)(F)[C@@H](c2cc[n+]([O-])cc2)C1 [Example 114, 4-((S)-4,4-difluoro-1-((S)-1-((5-(4-fluorophenoxy)pyridin-2-yl)amino)-1-oxopropan-2-yl)piperidin-3-yl)pyridine 1-oxide]	≥ 8.00

Source: patent US11976057B2, “MrgX2 antagonists” (GlaxoSmithKline Intellectual Property Development Limited, priority 2020, dated 2024)
